Experimental data taken from patent US20260364047A1, “METHODS OF SWITCHING NEUROPSYCHIATRIC MEDICATIONS USING ULOTARONT” (Sumitomo Pharma America, Inc., priority 2022, published 2026).
Entries after “also recorded” stand apart in the source; their conditions may differ.

Key:
[1] = Liver triglycerides of rats previously treated with olanzapine; settings: 3 mg/kg po; prior olanzapine 3 mg/kg po
[2] = Changes in body weights of rats previously treated with olanzapine
[3] = Daily food intake of rats previously treated with olanzapine; settings: 3 mg/kg/day po
[4] = Week 1 (Day 1-8), 3 mg/kg po, high-fat diet
[5] = Week 2 (Day 8-14), 3 mg/kg po, prior olanzapine 3 mg/kg po

For `Cc1cc2c(s1)Nc1ccccc1N=C2N1CCN(C)CC1` [Olanzapine, olanzapine], the “Liver triglycerides (μmol total), % vs Vehicle (A)” value [1] was 100.4%, the “Liver triglycerides (μmol/g), % vs Vehicle (A)” value [1] was 100.0% and the “Liver triglycerides total, Mean” value [1] was 348 μmol total. The “Liver triglycerides, Mean” value [1] was 37.1 µmol/g, the “Increase in body weight, previously shown in-house” value ([2]; 3 mg/kg po, this model, earlier in-house experiments) was 4-6% and the “Body weight compared to vehicle treated rats (in words)” value ([2]; 3 mg/kg/day po) was “An increase in body weight; also recorded: significantly increased body weight”. For the same compound, the “Time to initial effects on body weight and food intake” value ([2]; 3 mg/kg/day po, as early as, following dosing) was 2 to 3 days, the “Changes in body weights, Difference vs Vehicle (A)” value [2, 4] was 13.07 g and the “Changes in body weights, Mean” value [2, 4] was 25.48 g. The “Changes in body weights, Difference vs Vehicle (A)” value [2, 5] was 7.55 g, the “Changes in body weights, Mean” value [2, 5] was 16.70 g and the “Food intake compared to vehicle treated rats (in words)” value [3] was “significantly increased”.
